Data: US20200345733A1, “Microbicidal Pyrimidine or Triazine Containing Compounds” (Janssen Sciences Ireland UC, priority 2002, published 2020)
Read-outs that look alike come from different tables or passages of the source.

How the values were obtained:
Assay type in all cases: cell-based
[1] = tested on: cervical epithelial cells (MEI180); test: MTT viability of cervical epithelial cells; conditions: exposure 1 hr, 24 hrs or 5 days
[2] = tested on: HIV Ba-L; test: Prevention of HIV Ba-L infection in MO-DC/CD4(+) T cell co-cultures (ELISA, secondary culture, PCR); conditions: for HIV Antigen (number of positive wells) 2° Cult. / HIV proviral DNA (2° Cult.) / HIV Antigen (number of positive wells) 1° Cult.: cell-associated HIV Ba-L; for HIV Antigen (number of positive wells) 2° Cult.: 2° culture without drug, out of 6; for HIV proviral DNA (2° Cult.): PCR after secondary culture; for HIV Antigen (number of positive wells) 1° Cult.: continuous drug, out of 6 microcultures; for EC50: Human immunodeficiency virus 1, BAL, T-cell, MO-DC/CD4(+) T cells, read-out: EC50 (inhibiting 50% of HIV Ba-L replication)
Description: For experiments with CEM T cells, we used the lymphotropic SI/X4 HIV strain HTLV-IIIB, originally obtained from R. C. Gallo and M. Popovic (NIH, Bethesda, Md.). For experiments with monocyte-derived dendritic cells (MO-DC), the monotropic NSI/R5 HIV strain Ba-L, kindly provided by the NIH AIDS Research and Reference Reagent Program (Rockville, Md) was used. Ba-L stocks were grown and tittered on PHA/IL-2-stimulated peripheral blood mononuclear cells (PBMC) in complete medium, containing RPMI-1640 (Bio-Whittaker, Verviers, Belgium) and 10% bovine calf serum (Hyclone, Utah, US) (Peden K. Virological and Molecular Genetic Techniques for Studies of Established HIV Isolates. 1995, 21-45). The supernatant of these cultures were directly used as cell-free virus to infect MO-DC. To prepare cell-associated HIV Ba-L, non-stimulated PBMC (2×10^6 cells/ml) were incubated overnight with 10^−2 MOI (=multiplicity of infection) of HIV Ba-L in complete medium. Afterwards, cells were extensively washed, frozen in liquid nitrogen and thawed on the day of infection.
HIV antigen was detected using an in-house developed ELISA assay, of which the characteristics have been described (Beirnaert E, Willems B, Peeters M, Bouckaert A, Heyndrickx L, Zhong P et al. Design and Evaluation of an in-House HIV-1 (Group M and O), SIVmnd and SIVcpz Antigen Capture Assay. J Virol Methods 1998, 73: 65-70). The lower detection limit is about 200 pg/ml and the upper limit is about 25,000 pg/ml, as determined using a standard curve of Ba-L stock dilutions with known p24 content. The 50% Effective Concentration (EC50) was calculated by plotting HIV Ag concentration against drug concentration, followed by regression analysis on the linear part of the curve,
Cell-free HIV Ba-L was pre-incubated with a serial dilution of drug, ranging from 10,000 to 0.1 nM (final concentration), for 1 hour at 37° C. MO-DC were infected with drug-treated HIV at a multiplicity of infection (MOI) of 10^−3. After 2 hours (at 37° C.), MO-DC were washed (6×) and suspended at 4×10^5 cells/ml. 50 μl of MO-DC were dispensed in a 96-well cup, together with 50 μl of autologous CD4(+) T cells (2×10^6 cells/ml) and 100 μl of complete medium or 100 μl of drug (at the same concentration as for the pre-incubation). Half of the culture medium was refreshed twice weekly with complete medium, with or without drug. After 2 weeks of primary culture, supernatants were analysed by ELISA and cells were used for secondary cultures to check viral rescue. For experiments with cell-associated HIV, a similar set-up was used except that pre-incubated, cell-associated virus was washed before addition of MO-DC/CD4(+) T cells and remained present during the MO-DC/CD4(+) T cell co-culture.
To evaluate the effect of a 24-hours treatment, MO-DC and autologous CD4(+) T cells were suspended in complete medium at 4×10^4, resp. 2×10^5 cells/ml. Fifty μl of MO-DC and 50 μl of CD4(±) T cells were dispensed in a 96-well cup, together with 50 μl of cell-associated or cell-free virus (10^−3 MOI) and 50 μl of complete medium or 50 μl of a serial dilution of drug. After 24-hours (37° C., 5% CO2), cells were washed (3×) and incubated for 2 weeks. Half of the culture medium was refreshed twice weekly with complete medium (without drug). After 2 weeks of primary culture, supernatants were analysed by ELISA and cells were used for secondary cultures to check viral rescue.
PBMC were isolated from donor buffy coats and cultured for 2 days in complete medium supplemented with 5 ng/ml IL-2 (Immunosource, Zoersel, Belgium) and 0.5 μg/ml PHA (Murex, Dartford, England). After 2 weeks of primary culture, MO-DC/CD4(+) T cell co-cultures were washed (3×) and secondary cultures were set-up by adding 1×10^5 PHA/IL-2 activated PBMC per cup. Half of the culture medium was replaced every 3-4 days with IL-2 containing medium (without drug) and supernatants as well as cells were harvested after 2 additional weeks. Supernatants were tested for HIV-Ag in ELISA. […]

[3] = tested on: primary HIV strains (X4, CCR5 and X41R5); test: Efficacy against primary HIV strains in relevant cell lines
[4] = tested on: T-lymphocyte proliferation; test: Immune suppressive activity in mixed leukocyte cultures (MO-DC stimulators, allogenic CD4(+) T cells)
Description: The immune suppressive activity of compound B was measured in mixed leukocyte cultures (MLC), with MO-DC as stimulators and allogenic CD4(+) T cells as responders. Cultures of 3×10^3 MO-DC and 100×10^3 T cells were set-up in 6-fold in a 96-well plate, in the presence or absence of a dilution series of compound B. In a first part of experiments, compound B was removed after 24 hours by washing and cells were cultured for an additional 4 days. In a second part of experiments, compound B remained present during the 5-day culture period. In both set-ups, 1 μCi of [methyl-^3H] thymidine (TRA. 120 from Amersham Pharmacia, Buckinghamshire, U.K.) was added to each well at the fifth day of culture. Plates were harvested 7 hours later and [methyl-^3H] thymidine incorporation was measured in a scintillation counter (Top Count™, Canberra-Packard, Zellik, Belgium) and expressed as counts per minute (CPM). The
Immune Suppressive Concentration (ISC50) is defined as the drug concentration inhibiting 50% of the lymphocyte proliferation. Cellular toxicity was evaluated microscopically by […] staining of co-cultures of MO-DC and allogeneic CD4(+) T cells , cultured for 5 days in the presence of a dilution series of drug. Part of the harvested cells was also used for flowcytometric analysis of lymphocyte blast formation and apopoptosis, based on forward and side scatter.

[5] = Continuous treatment, Cell-associated HIV
[6] = Continuous treatment, Cell-free HIV

## Cc1cc(C)c(Nc2ccnc(Nc3ccc(C#N)cc3)n2)c(C)c1 [compound B, 4-[[4-[(2,4,6-trimethylphenyl)amino]-2-pyrimidinyl]amino]benzonitrile]
[1]; 100 nM
  Toxicity (viability, MTT assay): some reduction of viability
[1]; 50 μM
  Toxicity (viability, MTT assay): no toxicity
[2]; 10 nM in 1° culture
  HIV Antigen (number of positive wells) 2° Cult.: 3
[2]; 10 nM
  HIV proviral DNA (2° Cult.): 4.74 Log(number of DNA copies/10^6 cells)
  HIV Antigen (number of positive wells) 1° Cult.: 0
[2]; 100 nM in 1° culture
  HIV Antigen (number of positive wells) 2° Cult.: 0
[2]; 100 nM
  HIV proviral DNA (2° Cult.): Neg
  HIV Antigen (number of positive wells) 1° Cult.: 0
[2]; 1,000 nM in 1° culture
  HIV Antigen (number of positive wells) 2° Cult.: 0
[2]; 1,000 nM
  HIV proviral DNA (2° Cult.): Neg
  HIV Antigen (number of positive wells) 1° Cult.: 0
[2]; 10,000 nM in 1° culture
  HIV Antigen (number of positive wells) 2° Cult.: 0
[2]; 10,000 nM
  HIV proviral DNA (2° Cult.): Neg
  HIV Antigen (number of positive wells) 1° Cult.: 0
[2]; 24 Hours treatment, Cell-associated HIV
  Conc. that prevents replicative HIV infection (ELISA and PCR after 2° culture): 1,000 nM
[2]; 24 Hours treatment, Cell-free HIV
  Conc. that prevents replicative HIV infection (ELISA and PCR after 2° culture): 100 nM
[2]; [5]
  Conc. that prevents replicative HIV infection (ELISA and PCR after 2° culture): 100 nM
  EC50: < 1 nM
[2]; [6]
  Conc. that prevents replicative HIV infection (ELISA and PCR after 2° culture): 10 nM
  EC50: < 0.1 nM
[2]; 24 h, 24 hours treatment, Cell-associated HIV
  EC50: 63 nM
[2]; 24 h, 24 hours treatment, Cell-free HIV
  EC50: 42 nM
[2]; cell-associated virus, continuous treatment, primary culture only
  Concentration that blocked infection in the primary cultures: 10 nM
[3]
  Efficacy against primary HIV strains: good efficacy
[4]; drug present continuously during 5-day culture
  ISC50 (50% Immune Suppressive Concentration): about 1,500 nM
[4]; drug present continuously during 5-day culture, listed as Comp. B
  ISC50 (50% Immune Suppressive Concentration): 1,515 nM
[4]; drug present during first 24 hours only
  ISC50 (50% Immune Suppressive Concentration): ~25,000 nM
[4]; drug present during first 24 hours only, listed as Comp. B
  ISC50 (50% Immune Suppressive Concentration): 24,886 nM
